Active and inactive are the calls of the source. No cut-off for these calls is given here.
What was measured:
Hep 3B2 [1] = experiment: Induction of apoptosis in human Hep3B cells assessed as viable cells at 10 nM incubated for 48 hrs by Annexin V-FITC/PI staining based flow cytometry method (Rvb =95.7%); assay type: functional; conditions: read-out: Activity
Hep 3B2 [2] = experiment: Induction of apoptosis in human Hep3B cells assessed as early apoptotic cells at 10 nM measured after 48 hrs by Annexin V-FITC/PI staining based flow cytometry method (reference value: 1.3%); assay type: functional
Hep 3B2 [3] = experiment: Induction of apoptosis in human Hep3B cells assessed as late apoptotic cells at 10 nM incubated for 48 hrs by Annexin V-FITC/PI staining based flow cytometry method (reference value: 2.2%); assay type: functional
Hep 3B2 [4] = experiment: Induction of apoptosis in human Hep3B cells assessed as necrotic cells at 10 nM incubated for 48 hrs by Annexin V-FITC/PI staining based flow cytometry method (reference value: 0.7%); assay type: functional
Hep 3B2 [5] = experiment: Induction of apoptosis in human Hep3B cells assessed as viable cells at 10 nM incubated for 48 hrs in presence of gamabufotalin by Annexin V-FITC/PI staining based flow cytometry method (Rvb =95.7%); assay type: functional; conditions: read-out: Activity
Hep 3B2 [6] = experiment: Induction of apoptosis in human Hep3B cells assessed as early apoptotic cells at 10 nM measured after 48 hrs in presence of gamabufotalin by Annexin V-FITC/PI staining based flow cytometry method (reference value: 1.3%); assay type: functional
Hep 3B2 [7] = experiment: Induction of apoptosis in human Hep3B cells assessed as late apoptotic cells at 10 nM incubated for 48 hrs in presence of gamabufotalin by Annexin V-FITC/PI staining based flow cytometry method (reference value: 2.2%); assay type: functional
Hep 3B2 [8] = experiment: Induction of apoptosis in human Hep3B cells assessed as necrotic cells at 10 nM incubated for 48 hrs in presence of gamabufotalin by Annexin V-FITC/PI staining based flow cytometry method (reference value: 0.7%); assay type: functional
Huh-7 [9] = experiment: Induction of apoptosis in human Huh-7 cells assessed as viable cells at 10 nM incubated for 48 hrs by Annexin V-FITC/PI staining based flow cytometry method (reference value: 90.0%); assay type: functional; conditions: read-out: Activity
Huh-7 [10] = experiment: Induction of apoptosis in human Huh-7 cells assessed as early apoptotic cells at 10 nM incubated for 48 hrs by Annexin V-FITC/PI staining based flow cytometry method (reference value: 4.3%); assay type: functional
Huh-7 [11] = experiment: Induction of apoptosis in human Huh-7 cells assessed as late apoptotic cells at 10 nM incubated for 48 hrs by Annexin V-FITC/PI staining based flow cytometry method (reference value: 3.8%); assay type: functional
Huh-7 [12] = experiment: Induction of apoptosis in human Huh-7 cells assessed as necrotic cells at 10 nM incubated for 48 hrs by Annexin V-FITC/PI staining based flow cytometry method (reference value: 1.9%); assay type: functional
Huh-7 [13] = experiment: Induction of apoptosis in human Huh-7 cells assessed as viable cells at 10 nM incubated for 48 hrs in presence of gamabufotalin by Annexin V-FITC/PI staining based flow cytometry method (reference value: 90.0%); assay type: functional; conditions: read-out: Activity
Huh-7 [14] = experiment: Induction of apoptosis in human Huh-7 cells assessed as early apoptotic cells at 10 nM incubated for 48 hrs in presence of gamabufotalin by Annexin V-FITC/PI staining based flow cytometry method (reference value: 4.3%); assay type: functional
Huh-7 [15] = experiment: Induction of apoptosis in human Huh-7 cells assessed as late apoptotic cells at 10 nM incubated for 48 hrs in presence of gamabufotalin by Annexin V-FITC/PI staining based flow cytometry method (reference value: 3.8%); assay type: functional
Huh-7 [16] = experiment: Induction of apoptosis in human Huh-7 cells assessed as necrotic cells at 10 nM incubated for 48 hrs in presence of gamabufotalin by Annexin V-FITC/PI staining based flow cytometry method (reference value: 1.9%); assay type: functional
Hep 3B2 [17] = experiment: Induction of apoptosis in human Hep3B cells assessed as upregulation of cleaved PARP level at 10 uM incubated for 48 hrs in presence of gamabufotalin by immunoblot analysis; assay type: functional, cell-based
Hep 3B2 [18] = experiment: Induction of apoptosis in human Hep3B cells assessed as upregulation of PARP level at 10 uM incubated for 48 hrs in presence of gamabufotalin by immunoblot analysis; assay type: functional, cell-based
Hep 3B2 [19] = experiment: Induction of apoptosis in human Hep3B cells assessed as upregulation of cleaved caspase-3 level at 10 uM incubated for 48 hrs in presence of gamabufotalin by immunoblot analysis; assay type: functional, cell-based
Hep 3B2 [20] = experiment: Induction of apoptosis in human Hep3B cells assessed as upregulation of caspase-3 level at 10 uM incubated for 48 hrs in presence of gamabufotalin by immunoblot analysis; assay type: functional, cell-based
Hep 3B2 [21] = experiment: Induction of apoptosis in human Hep3B cells assessed as upregulation of bax level at 10 uM incubated for 48 hrs in presence of gamabufotalin by immunoblot analysis; assay type: functional, cell-based
Hep 3B2 [22] = experiment: Induction of apoptosis in human Hep3B cells assessed as reduction in bcl-2 level at 10 uM incubated for 48 hrs in presence of gamabufotalin by immunoblot analysis; assay type: functional, cell-based
Huh-7 [23] = experiment: Induction of apoptosis in human Huh-7 cells assessed as upregulation of cleaved PARP level at 10 uM incubated for 48 hrs in presence of gamabufotalin by immunoblot analysis; assay type: functional, cell-based
Huh-7 [24] = experiment: Induction of apoptosis in human Huh-7 cells assessed as upregulation of PARP level at 10 uM incubated for 48 hrs in presence of gamabufotalin by immunoblot analysis; assay type: functional, cell-based
Huh-7 [25] = experiment: Induction of apoptosis in human Huh-7 cells assessed as upregulation of cleaved caspase-3 level at 10 uM incubated for 48 hrs in presence of gamabufotalin by immunoblot analysis; assay type: functional, cell-based
Huh-7 [26] = experiment: Induction of apoptosis in human Huh-7 cells assessed as upregulation of caspase-3 level at 10 uM incubated for 48 hrs in presence of gamabufotalin by immunoblot analysis; assay type: functional, cell-based
Huh-7 [27] = experiment: Induction of apoptosis in human Huh-7 cells assessed as upregulation of bax level at 10 uM incubated for 48 hrs in presence of gamabufotalin by immunoblot analysis; assay type: functional, cell-based
Huh-7 [28] = experiment: Induction of apoptosis in human Huh-7 cells assessed as reduction in bcl-2 level at 10 uM incubated for 48 hrs in presence of gamabufotalin by immunoblot analysis; assay type: functional, cell-based
Hep 3B2 [29] = experiment: Induction of autophagy in human Hep3B cells harbouring mCherry-egfp-LC3 assessed as reduction in yellow puncta ratio at 10 nM incubated for 15 mins in presence of gamabufotalin by laser scanning confocal microscopic analysis; assay type: functional, cell-based
Hep 3B2 [30] = experiment: Induction of autophagy in human Hep3B cells harbouring mCherry-egfp-LC3 assessed as reduction in red puncta ratio at 10 nM incubated for 15 mins in presence of gamabufotalin by laser scanning confocal microscopic analysis; assay type: functional, cell-based
Hep 3B2 [31] = experiment: Induction of autophagy in human Hep3B cells assessed as reduction in autophagic vesicles at 10 nM incubated for 48 hrs in presence of gamabufotalin by transmission electron microscopy based analysis; assay type: functional, cell-based
Huh-7 [32] = experiment: Induction of autophagy in human Huh-7 cells harbouring mCherry-egfp-LC3 assessed as reduction in yellow puncta ratio at 10 nM incubated for 15 mins in presence of gamabufotalin by laser scanning confocal microscopic analysis; assay type: functional, cell-based
Huh-7 [33] = experiment: Induction of autophagy in human Huh-7 cells harbouring mCherry-egfp-LC3 assessed as reduction in red puncta ratio at 10 nM incubated for 15 mins in presence of gamabufotalin by laser scanning confocal microscopic analysis; assay type: functional, cell-based
Huh-7 [34] = experiment: Induction of autophagy in human Huh-7 cells assessed as reduction in autophagic vesicles at 10 nM incubated for 48 hrs in presence of gamabufotalin by transmission electron microscopy based analysis; assay type: functional, cell-based
Hep 3B2 [35] = experiment: Induction of autophagy in human Hep3B cells assessed as restoration of mTOR phosphorylation expression at 10 uM incubated for 48 hrs in presence of gamabufotalin by immunoblot analysis; assay type: functional, cell-based
Hep 3B2 [36] = experiment: Induction of autophagy in human Hep3B cells assessed as restoration of ULK1 phosphorylation expression at 10 uM incubated for 48 hrs in presence of gamabufotalin by immunoblot analysis; assay type: functional, cell-based
Huh-7 [37] = experiment: Induction of autophagy in human Huh-7 cells assessed as restoration of mTOR phosphorylation expression at 10 uM incubated for 48 hrs in presence of gamabufotalin by immunoblot analysis; assay type: functional, cell-based
Huh-7 [38] = experiment: Induction of autophagy in human Huh-7 cells assessed as restoration of ULK1 phosphorylation expression at 10 uM incubated for 48 hrs in presence of gamabufotalin by immunoblot analysis; assay type: functional, cell-based
Hep 3B2 [39] = experiment: Induction of autophagy in human Hep3B cells assessed as upregulation of p62 at 10 uM incubated for 48 hrs in presence of gamabufotalin by immunoblot analysis; assay type: functional, cell-based
Huh-7 [40] = experiment: Induction of autophagy in human Huh-7 cells assessed as upregulation of p62 at 10 uM incubated for 48 hrs in presence of gamabufotalin by immunoblot analysis; assay type: functional, cell-based
Hep 3B2 [41] = experiment: Induction of autophagy in human Hep3B cells assessed as downregulation of LC3II/LC3I ratio at 10 uM incubated for 48 hrs in presence of gamabufotalin by immunoblot analysis; assay type: functional, cell-based
Huh-7 [42] = experiment: Induction of autophagy in human Huh-7 cells assessed as downregulation of LC3II/LC3I ratio at 10 uM incubated for 48 hrs in presence of gamabufotalin by immunoblot analysis; assay type: functional, cell-based

O=[N+]([O-])c1ccc(Nc2nc(N3CCOCC3)nc(N3CCOCC3)n2)cc1
viability at 0.01 µM (Hep 3B2 [1]): 94% | Activity (Hep 3B2 [2]): 2.5% | Activity (Hep 3B2 [3]): 3.4% | Activity (Hep 3B2 [4]): 0.1% | viability at 0.01 µM (Hep 3B2 [5]): 67.2% | Activity (Hep 3B2 [6]): 10.9% | Activity (Hep 3B2 [7]): 20.2% | Activity (Hep 3B2 [8]): 1.7% | viability at 0.01 µM (Huh-7 [9]): 92.6% | Activity (Huh-7 [10]): 3.8% | Activity (Huh-7 [11]): 2.9% | Activity (Huh-7 [12]): 0.7% | viability at 0.01 µM (Huh-7 [13]): 76.8% | Activity (Huh-7 [14]): 14.9% | Activity (Huh-7 [15]): 6.6% | Activity (Huh-7 [16]): 1.7% | Activity (Hep 3B2 [17]): Active | Activity (Hep 3B2 [18]): Active | Activity (Hep 3B2 [19]): Active | Activity (Hep 3B2 [20]): Active | Activity (Hep 3B2 [21]): Active | Activity (Hep 3B2 [22]): Active | Activity (Huh-7 [23]): Active | Activity (Huh-7 [24]): Active | Activity (Huh-7 [25]): Active | Activity (Huh-7 [26]): Active | Activity (Huh-7 [27]): Active | Activity (Huh-7 [28]): Active | Activity (Hep 3B2 [29]): Active | Activity (Hep 3B2 [30]): Active | Activity (Hep 3B2 [31]): Active | Activity (Huh-7 [32]): Active | Activity (Huh-7 [33]): Active | Activity (Huh-7 [34]): Active | Activity (Hep 3B2 [35]): Active | Activity (Hep 3B2 [36]): Active | Activity (Huh-7 [37]): Active | Activity (Huh-7 [38]): Active | Activity (Hep 3B2 [39]): Active | Activity (Huh-7 [40]): Active | Activity (Hep 3B2 [41]): Active | Activity (Huh-7 [42]): Active

— ChEMBL document CHEMBL5257089, “Gamabufotalin Induces Apoptosis and Cytoprotective Autophagy through the mTOR Signaling Pathway in Hepatocellular Carcinoma” (J Nat Prod, 2023)
